Test results from EP0603240B1, “SAFENING HERBICIDAL PYRAZOLYLSULFONYLUREAS” (priority 1991, dated 1993).

Assays:
Assay type in all cases: in vivo
[1] = test system: Giant foxtail (Setaria fabergi); experiment: Example 23, Procedure II: Antidote Nos. 15 and 17-21 against Herbicide No. 1, 13 days after application
Experimental: (§1) Containers were filled and compacted with a fumigated silt loam top soil to a depth of about 1.3 cm from the top of the container. A first container was designated as an untreated control, a second container was designated as a herbicide control, and a third container was designated as a herbicide + antidote test container. Each of the containers was seeded with a crop species. A measured amount of herbicide dispersed or dissolved in acetone was applied to a measured quantity of soil. To this same quantity of soil treated with herbicide, there was added a measured amount of antidote dispersed or dissolved in acetone. The quantity of soil treated with the herbicide and antidote was thoroughly mixed to incorporate the herbicide and antidote in the soil uniformly. The seed bed in the third container of soil was covered with the soil treated with the herbicide and antidote and the container was leveled. For each test series, the seed beds of the first and second containers were likewise covered by soil layers. the cover layer of the first container was not treated with herbicide or antidote.
(§2) The containers were then placed on a bench in a greenhouse and sub-irrigated as required for the duration of the test. […] Plant response is measured in terms of percent injury. Antidote efficacy is indicated as the difference in plant injury by the herbicide(s) without the antidote and with the antidote.
(§3) This procedure is the same as Procedure I, but modified in the manner that after incorporation of the chemicals (herbicide and antidote) the containers with the covered seedbed were treated with an initial overhead irrigation equivalent to 0.6 cm rainfall, then subsequently sub-irrigated as required on greenhouse benches.
(§4) In other greenhouse tests, using Procedure II described above, the safening efficacy of Antidote Nos. 15 and 17-21 was evaluated against Herbicide No. 1 in corn in the presence of Giant foxtail (Setaria fabergi) and Velvetleaf (Abutilon theophrasti) as representative annual monocotyledonous and dicotyledonous weeds, respectively.
(§5) Test results are shown in Tables 23A and 23B wherein the indicated plant inhibition represents the average of duplicate replications, with observations being made thirteen (13) days after application of the chemicals. Giant foxtail and Velvetleaf are represented by the symbols "GFT" and "VL", respectively. The data in Table 23A show the test results using the antidotes at 2.24 kg/ha, whereas in Table 23B, the antidotal rate was reduced to 0.56 kg/ha.

[2] = test system: corn; experiment: as above; conditions: for % Inhibition Corn: 13 days after application
Experimental: as §1, §2, §3, §4, §5

[3] = test system: velvetleaf (Abutilon theophrasti); experiment: as above
Experimental: as §1, §2, §3, §4, §5

[4] = test system: corn; experiment: Example 8, Procedure II: Herbicide No. 1 + butachlor (No. 9) with antidotes; conditions: Herbicide Nos. 1 and 9, Table 8
Experimental: as §1, §2, §3
In this test, the efficacy of the same five antidotes used in Examples 6 and 7 was investigated in compositions comprising Herbicide No. 1 and as a co-herbicide, butachlor (Herbicide No. 9), active ingredient in MACHETE® herbicide, a leading commercial rice herbicide. The test procedure used in this example was the same as that in Examples 6 and 7.

[5] = Table 23A, Herb. No. 1 0.14 Kg/Ha + antidote 2.24 Kg/ha
[6] = Table 23A, Herb. No. 1 0.28 Kg/Ha + antidote 2.24 Kg/ha
[7] = Table 23A, Herb. No. 1 0.56 Kg/Ha + antidote 2.24 Kg/ha
[8] = Table 23A, Herb. No. 1 1.12 Kg/Ha + antidote 2.24 Kg/ha
[9] = Table 23B, Herb. No. 1 0.14 Kg/Ha + antidote 0.56 Kg/ha
[10] = Table 23B, Herb. No. 1 0.28 Kg/Ha + antidote 0.56 Kg/ha
[11] = Table 23B, Herb. No. 1 0.56 Kg/Ha + antidote 0.56 Kg/ha
[12] = Table 23B, Herb. No. 1 1.12 Kg/Ha + antidote 0.56 Kg/ha

SMILES	% Inhibition GFT [1, 5] [%]	% Inhibition GFT [1, 6] [%]	% Inhibition GFT [1, 7] [%]	% Inhibition GFT [1, 8] [%]	% Inhibition GFT [1, 9] [%]	% Inhibition GFT [1, 10] [%]	% Inhibition GFT [1, 11] [%]	% Inhibition GFT [1, 12] [%]	% Inhibition Corn [2, 5] [%]	% Inhibition Corn [2, 6] [%]	% Inhibition Corn [2, 7] [%]	% Inhibition Corn [2, 8] [%]	% Inhibition Corn [2, 9] [%]	% Inhibition Corn [2, 10] [%]	% Inhibition Corn [2, 11] [%]	% Inhibition Corn [2, 12] [%]	% Inhibition VL [3, 5] [%]	% Inhibition VL [3, 6] [%]	% Inhibition VL [3, 7] [%]	% Inhibition VL [3, 8] [%]	further results
COC(=O)COC(c1ccccc1)c1ccccc1 [compound 20]	15	35	40	65	15	20	60	75	0	0	0	15	0	5	20	40	90	90	85	90	% Inhibition VL [3, 9]: 90%; % Inhibition VL [3, 10]: 90%; % Inhibition VL [3, 11]: 90%; % Inhibition VL [3, 12]: 95%
CCSC(=O)COC(c1ccccc1)c1ccccc1 [compound 21]	10	20	35	70	20	45	50	75	0	0	5	30	0	5	20	35	85	85	95	95	% Inhibition VL [3, 9]: 85%; % Inhibition VL [3, 10]: 90%; % Inhibition VL [3, 11]: 90%; % Inhibition VL [3, 12]: 95%
CC1(C)OC(c2ccco2)CN1C(=O)C(Cl)Cl (centres unmarked) [Antidote No. 15, Oxazolidine, 3-(dichloroacetyl)-5-(2-furanyl)-2,2-dimethyl]																					safening of corn, assessment in words [4]: best safening effect across all four treatments; safening of corn, assessment in words ([2]; Herbicide No. 1, Tables 23A and 23B): greatly safened corn against the herbicide at all test rates
O=C(O)COC(c1ccccc1)c1ccccc1 [compound 19]	15	30	50	70	25	40	60	65	0	0	5	15	0	5	15	40	90	85	95	95	% Inhibition VL [3, 9]: 85%; % Inhibition VL [3, 10]: 85%; % Inhibition VL [3, 11]: 90%; % Inhibition VL [3, 12]: 90%
O=C(O)COC(c1ccccc1)c1ccccc1 [compound 18]	15	30	65	70	15	20	60	60	0	0	10	10	5	5	20	30	90	95	95	95	% Inhibition VL [3, 9]: 90%; % Inhibition VL [3, 10]: 95%; % Inhibition VL [3, 11]: 90%; % Inhibition VL [3, 12]: 95%
CC1COc2ccccc2N1C(=O)C(Cl)Cl (centres unmarked) [compound 17]	25	25	60	70	15	40	55	65	0	0	15	25	0	10	20	30	95	85	95	95	% Inhibition VL [3, 9]: 90%; % Inhibition VL [3, 10]: 90%; % Inhibition VL [3, 11]: 90%; % Inhibition VL [3, 12]: 95%
